Patent US4393225A, “AI-77 Compounds and pharmaceutically acceptable salts thereof” (Asahi Kasei Kogyo Kabushiki Kaisha, priority 1979, dated 1983)

Test system: ulcer
Assay: Anti-ulcer test (restraint and water immersion ulcer in rats, i.p.)
Type: in vivo, Male Wistar rats
Conditions: Rattus norvegicus, ip; 50 mg/kg i.p.; read-out: % Inhibition of Ulcer
Outline: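 Compound given intraperitoneally in saline to 24 h-fasted male Wistar rats about 150 g, followed after one hour by 6 h restraint with water immersion at 21 °C. Gastric lesions graded 0, 0.5, 1, 2 or 3 on microscopic inspection and converted to percent ulcer inhibition.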

SMILES	inhibition in vivo at 50 mg/kg [%]
CCCCCCCCCCCCOc1cccc2c1C(=O)OC(C(CC(C)C)NC(=O)C(O)C1OC(=O)CC1NCC)C2 (centres unmarked) [IIIa-22-9]	83
CCNC1CC(=O)OC1C(O)C(=O)NC(CC(C)C)C1Cc2cccc(OCC(C)C)c2C(=O)O1 (centres unmarked) [IIIa-22-10]	83
CCCCCCCCOc1cccc2c1C(=O)OC(C(CC(C)C)NC(=O)C(O)C1OC(=O)CC1NCC)C2 (centres unmarked) [IIIa-22-11]	83
CCCCCCCCOc1cccc2c1C(=O)OC(C(CC(C)C)NC(=O)C(O)C1OC(=O)CC1NCCCCCCC)C2 (centres unmarked) [IIIa-22-12]	72
CCOc1cccc2c1C(=O)OC(C(CC(C)C)NC(=O)C(O)C1OC(=O)CC1NCC(Cl)(Cl)Cl)C2 (centres unmarked) [IIIa-22-13]	78
CCOc1cccc2c1C(=O)OC(C(CC(C)C)NC(=O)C(O)C1OC(=O)CC1NCCCCBr)C2 (centres unmarked) [IIIa-22-25]	89
CCOc1cccc2c1C(=O)OC(C(CC(C)C)NC(=O)C(O)C1OC(=O)CC1NCCSC)C2 (centres unmarked) [IIIa-22-39]	94
CCCCCSCCNC1CC(=O)OC1C(O)C(=O)NC(CC(C)C)C1Cc2cccc(OCC)c2C(=O)O1 (centres unmarked) [IIIa-22-40]	94
C#CCNC1CC(=O)OC1C(O)C(=O)NC(CC(C)C)C1Cc2cccc(OCC)c2C(=O)O1 (centres unmarked) [IIIa-22-47]	94
CCOc1cccc2c1C(=O)OC(C(CC(C)C)NC(=O)C(O)C1OC(=O)CC1NCCCCCO)C2 (centres unmarked) [IIIa-22-53]	78
CCOc1cccc2c1C(=O)OC(C(CC(C)C)NC(=O)C(O)C1OC(=O)CC1NCC=C(C)C)C2 (centres unmarked) [IIIa-22-72]	94
CCCCNC1CC(=O)OC1C(O)C(=O)NC(CC(C)C)C1Cc2cccc(OCCCC)c2C(=O)O1 (centres unmarked) [IIIa-22-76]	94
CCCCNC1CC(=O)OC1C(O)C(=O)NC(CC(C)C)C1Cc2cccc(OCCC(C)C)c2C(=O)O1 (centres unmarked) [IIIa-22-77]	94
CCCCCCCCCCCCCCCCCCOc1cccc2c1C(=O)OC(C(CC(C)C)NC(=O)C(O)C1OC(=O)CC1NCCCC)C2 (centres unmarked) [IIIa-22-78]	72
CCCCNC1CC(=O)OC1C(O)C(=O)NC(CC(C)C)C1Cc2cccc(OCCCl)c2C(=O)O1 (centres unmarked) [IIIa-22-79]	94
CCCCNC1CC(=O)OC1C(O)C(=O)NC(CC(C)C)C1Cc2cccc(OCCCBr)c2C(=O)O1 (centres unmarked) [IIIa-22-92]	94
CCCCCCCCCCCCCCCCCCNC1CC(=O)OC1C(OC(C)=O)C(=O)NC(CC(C)C)C1Cc2cccc(OCC)c2C(=O)O1 (centres unmarked) [IIIa-23-3]	44
CCNC1CC(=O)OC1C(OC)C(=O)NC(CC(C)C)C1Cc2cccc(OCC)c2C(=O)O1 (centres unmarked) [IIIa-24-1]	56
CCNC1CC(=O)OC1C(OCC)C(=O)NC(CC(C)C)C1Cc2cccc(OCC)c2C(=O)O1 (centres unmarked) [IIIa-24-2]	56
CCCCCCCCCCCCCCCCCCNC1CC(=O)OC1C(OCC)C(=O)NC(CC(C)C)C1Cc2cccc(OCCCCCCC)c2C(=O)O1 (centres unmarked) [IIIa-24-4]	44
CCCCNC1CC(=O)OC1C(OCCCC)C(=O)NC(CC(C)C)C1Cc2cccc(OC)c2C(=O)O1 (centres unmarked) [IIIa-24-10]	56
CCCCOc1cccc2c1C(=O)OC(C(CC(C)C)NC(=O)C(OC)C1OC(=O)CC1NCC)C2 (centres unmarked) [IIIa-24-16]	56
CCCCOC(C(=O)NC(CC(C)C)C1Cc2cccc(O)c2C(=O)O1)C1OC(=O)CC1NCC (centres unmarked) [IIIa-25-1]	66

SMILES	inhibition in vivo at 50 mg/kg [%]
CCCCCCCCCCCCCCCCCCNC1CC(=O)OC1C(OCCCC)C(=O)NC(CC(C)C)C1Cc2cccc(O)c2C(=O)O1 (centres unmarked) [IIIa-25-3]	56
CCNC1CC(=O)OC1C(OC)C(=O)NC(CC(C)C)C1Cc2cccc(O)c2C(=O)O1 (centres unmarked) [IIIa-25-9]	66
COC(C(=O)NC(CC(C)C)C1Cc2cccc(O)c2C(=O)O1)C1OC(=O)CC1NCC(Cl)(Cl)Cl (centres unmarked) [IIIa-25-10]	66
CCCCOC(C(=O)NC(CC(C)C)C1Cc2cccc(OC(C)=O)c2C(=O)O1)C1OC(=O)CC1NCC (centres unmarked) [IIIa-26-1]	66
CCCCCCCCCCCCCCCCCCNC1CC(=O)OC1C(OCCCC)C(=O)NC(CC(C)C)C1Cc2cccc(OC(C)=O)c2C(=O)O1 (centres unmarked) [IIIa-26-3]	44
CCCCCCCCCCCCCCCCCC(=O)Oc1cccc2c1C(=O)OC(C(CC(C)C)NC(=O)C(OCCCC)C1OC(=O)CC1NCC)C2 (centres unmarked) [IIIa-26-5]	56
CCNC1CC(=O)OC1C(OC)C(=O)NC(CC(C)C)C1Cc2cccc(OC(=O)C(C)C)c2C(=O)O1 (centres unmarked) [IIIa-26-9]	56
CNC1CC(=O)OC1C(OC(C)=O)C(=O)NC(CC(C)C)C1Cc2cccc(O)c2C(=O)O1 (centres unmarked) [IIIa-28-1]	66
CNC1CC(=O)OC1C(OC(=O)CC(C)C)C(=O)NC(CC(C)C)C1Cc2cccc(O)c2C(=O)O1 (centres unmarked) [IIIa-28-2]	66
CNC1CC(=O)OC1C(OC(=O)C(Cl)(Cl)Cl)C(=O)NC(CC(C)C)C1Cc2cccc(O)c2C(=O)O1 (centres unmarked) [IIIa-28-3]	66
CNC1CC(=O)OC1C(OC(C)=O)C(=O)NC(CC(C)C)C1Cc2cccc(OC(C)=O)c2C(=O)O1 (centres unmarked) [IIIa-29-1]	56
CNC1CC(=O)OC1C(O)C(=O)NC(CC(C)C)C1Cc2cccc(OC(C)=O)c2C(=O)O1 (centres unmarked) [IIIa-30-1]	78
CNC1CC(=O)OC1C(O)C(=O)NC(CC(C)C)C1Cc2cccc(OC)c2C(=O)O1 (centres unmarked) [IIIa-31-1]	94
CCOc1cccc2c1C(=O)OC(C(CC(C)C)NC(=O)C(O)C1OC(=O)CC1NC)C2 (centres unmarked) [IIIa-31-2]	94
CCCCCCCCCCCCCCCCCCOc1cccc2c1C(=O)OC(C(CC(C)C)NC(=O)C(O)C1OC(=O)CC1NC)C2 (centres unmarked) [IIIa-31-3]	78
CNC1CC(=O)OC1C(O)C(=O)NC(CC(C)C)C1Cc2cccc(OCCC(C)C)c2C(=O)O1 (centres unmarked) [IIIa-31-4]	89
CCOc1cccc2c1C(=O)OC(C(CC(C)C)NC(=O)C(OC(C)=O)C1OC(=O)CC1NC)C2 (centres unmarked) [IIIa-32-1]	56
CCOc1cccc2c1C(=O)OC(C(CC(C)C)NC(=O)C(OC(=O)C(C)C)C1OC(=O)CC1NC)C2 (centres unmarked) [IIIa-32-2]	44
CCCCOC(C(=O)NC(CC(C)C)C1Cc2cccc(OC)c2C(=O)O1)C1OC(=O)CC1NC (centres unmarked) [IIIa-33-1]	56
CCCCOc1cccc2c1C(=O)OC(C(CC(C)C)NC(=O)C(OCCCC)C1OC(=O)CC1NC)C2 (centres unmarked) [IIIa-33-3]	56
CNC1CC(=O)OC1C(OC)C(=O)NC(CC(C)C)C1Cc2cccc(O)c2C(=O)O1 (centres unmarked) [IIIa-34-1]	66
CNC1CC(=O)OC1C(OC)C(=O)NC(CC(C)C)C1Cc2cccc(OC(C)=O)c2C(=O)O1 (centres unmarked) [IIIa-35-1]	56
CC(=O)OC(C(=O)NC(CC(C)C)C1Cc2cccc(O)c2C(=O)O1)C1C=CC(=O)O1 (centres unmarked) [IVa-1-1]	44

SMILES	inhibition in vivo at 50 mg/kg [%]
CCC(=O)OC(C(=O)NC(CC(C)C)C1Cc2cccc(O)c2C(=O)O1)C1C=CC(=O)O1 (centres unmarked) [IVa-1-2]	44
CCCC(=O)OC(C(=O)NC(CC(C)C)C1Cc2cccc(O)c2C(=O)O1)C1C=CC(=O)O1 (centres unmarked) [IVa-1-3]	44
CC(C)CC(NC(=O)C(OC(=O)C(C)C)C1C=CC(=O)O1)C1Cc2cccc(O)c2C(=O)O1 (centres unmarked) [IVa-1-4]	44
CC(C)CC(=O)OC(C(=O)NC(CC(C)C)C1Cc2cccc(O)c2C(=O)O1)C1C=CC(=O)O1 (centres unmarked) [IVa-1-5]	44
CCCCC(=O)OC(C(=O)NC(CC(C)C)C1Cc2cccc(O)c2C(=O)O1)C1C=CC(=O)O1 (centres unmarked) [IVa-1-6]	44
CCCCCC(=O)OC(C(=O)NC(CC(C)C)C1Cc2cccc(O)c2C(=O)O1)C1C=CC(=O)O1 (centres unmarked) [IVa-1-7]	44
CCCCCCC(=O)OC(C(=O)NC(CC(C)C)C1Cc2cccc(O)c2C(=O)O1)C1C=CC(=O)O1 (centres unmarked) [IVa-1-8]	33
CCCCCCCC(=O)OC(C(=O)NC(CC(C)C)C1Cc2cccc(O)c2C(=O)O1)C1C=CC(=O)O1 (centres unmarked) [IVa-1-9]	33
CCCCCCCCCCCC(=O)OC(C(=O)NC(CC(C)C)C1Cc2cccc(O)c2C(=O)O1)C1C=CC(=O)O1 (centres unmarked) [IVa-1-10]	33
CCCCCCCCCCCCCCCCCC(=O)OC(C(=O)NC(CC(C)C)C1Cc2cccc(O)c2C(=O)O1)C1C=CC(=O)O1 (centres unmarked) [IVa-1-11]	33
CC(C)CC(NC(=O)C(OC(=O)C(Cl)(Cl)Cl)C1C=CC(=O)O1)C1Cc2cccc(O)c2C(=O)O1 (centres unmarked) [IVa-1-12]	44
CCCCC(=O)Oc1cccc2c1C(=O)OC(C(CC(C)C)NC(=O)C(O)C1C=CC(=O)O1)C2 (centres unmarked) [IVa-3-4]	33
CCCCCC(=O)Oc1cccc2c1C(=O)OC(C(CC(C)C)NC(=O)C(O)C1C=CC(=O)O1)C2 (centres unmarked) [IVa-3-5]	33
CCCCCCC(=O)Oc1cccc2c1C(=O)OC(C(CC(C)C)NC(=O)C(O)C1C=CC(=O)O1)C2 (centres unmarked) [IVa-3-6]	33
CCCCCCCC(=O)Oc1cccc2c1C(=O)OC(C(CC(C)C)NC(=O)C(O)C1C=CC(=O)O1)C2 (centres unmarked) [IVa-3-7]	33
CCCCCCCCCCCC(=O)Oc1cccc2c1C(=O)OC(C(CC(C)C)NC(=O)C(O)C1C=CC(=O)O1)C2 (centres unmarked) [IVa-3-8]	33
CCCCCCCCCCCCCCCCCC(=O)Oc1cccc2c1C(=O)OC(C(CC(C)C)NC(=O)C(O)C1C=CC(=O)O1)C2 (centres unmarked) [IVa-3-9]	33
CC(C)CC(NC(=O)C(O)C1C=CC(=O)O1)C1Cc2cccc(OC(=O)C(C)C)c2C(=O)O1 (centres unmarked) [IVa-3-10]	44
CC(C)CC(=O)Oc1cccc2c1C(=O)OC(C(CC(C)C)NC(=O)C(O)C1C=CC(=O)O1)C2 (centres unmarked) [IVa-3-11]	44
CCCCCCCCC=CCCCCCCCC(=O)Oc1cccc2c1C(=O)OC(C(CC(C)C)NC(=O)C(O)C1C=CC(=O)O1)C2 (centres unmarked) [IVa-3-12]	33
CC(C)CC(NC(=O)C(O)C1C=CC(=O)O1)C1Cc2cccc(OC(=O)C(Cl)(Cl)Cl)c2C(=O)O1 (centres unmarked) [IVa-3-13]	44
CC(C)CC(NC(=O)C(O)C1C=CC(=O)O1)C1Cc2cccc(OC(=O)CCC3CCCC3)c2C(=O)O1 (centres unmarked) [IVa-3-15]	33
